Reference: patent US7981903B2, “2-[2-{phenylamino}-1H-pyrrolo[2,3-D]pyrimidin-4-yl)amino] benzamide derivatives as IGF-1R inhibitors for the treatment of cancer” (GlaxoSmithKline LLC, priority 2007, dated 2011)

What was measured:
[1] = system: NCI-H929; test: Inhibition of cell proliferation (CellTiter-Glo or InCell analyzer), NCI-H929; type: cell-based; settings: Homo sapiens, 72 h / 3 days, values given as IC50 category
Procedure, shortened: In one

[2] = target: T1, NIH-3T3 cells overexpressing human IGF-1R (Homo sapiens, UniProt P08069); test: IGF-1R cellular autophosphorylation (DELFIA); type: cell-based
T1 construct: expressed in transfected cells; host or cells: NIH-3T3 (mouse fibroblasts)
Procedure, shortened: (§1)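 Receptor autophosphorylation measured by DELFIA, capturing IGF-1R or IRβ and detecting with europium anti-pTyr, reported as percent of IGF-1- or insulin-stimulated signal. Compounds (30 uM to 1.5 nM) added 2 h before ligand, then 15 min stimulation (IGF-1 30 ng/ml or insulin 3 ug/ml).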

[3] = target: T2, NIH-3T3 cells overexpressing human IR (Homo sapiens, UniProt P06213); test: IR cellular autophosphorylation (DELFIA); type: cell-based; settings: 2 h compound, insulin 3 ug/ml for 15 minutes, IC50 category
T2 construct: expressed in transfected cells; host or cells: NIH-3T3 (mouse fibroblasts)
Procedure, shortened: as §1

[4] = target: ALK (Homo sapiens, UniProt Q9UM73); test: ALK enzyme assay (HTRF); type: biochemical; settings: 0.25 nM ALK, 15.0 μM ATP, values given as pIC50 category
Procedure, shortened: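 Isolated ALK phosphorylates a biotinylated tyrosine peptide, 120 min at 20° C; anti-phosphotyrosine Eu-cryptate/streptavidin-XL665 HTRF read after 60 min with EDTA-containing detection mix.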

Sequence of ALK (Q9UM73 19-1620): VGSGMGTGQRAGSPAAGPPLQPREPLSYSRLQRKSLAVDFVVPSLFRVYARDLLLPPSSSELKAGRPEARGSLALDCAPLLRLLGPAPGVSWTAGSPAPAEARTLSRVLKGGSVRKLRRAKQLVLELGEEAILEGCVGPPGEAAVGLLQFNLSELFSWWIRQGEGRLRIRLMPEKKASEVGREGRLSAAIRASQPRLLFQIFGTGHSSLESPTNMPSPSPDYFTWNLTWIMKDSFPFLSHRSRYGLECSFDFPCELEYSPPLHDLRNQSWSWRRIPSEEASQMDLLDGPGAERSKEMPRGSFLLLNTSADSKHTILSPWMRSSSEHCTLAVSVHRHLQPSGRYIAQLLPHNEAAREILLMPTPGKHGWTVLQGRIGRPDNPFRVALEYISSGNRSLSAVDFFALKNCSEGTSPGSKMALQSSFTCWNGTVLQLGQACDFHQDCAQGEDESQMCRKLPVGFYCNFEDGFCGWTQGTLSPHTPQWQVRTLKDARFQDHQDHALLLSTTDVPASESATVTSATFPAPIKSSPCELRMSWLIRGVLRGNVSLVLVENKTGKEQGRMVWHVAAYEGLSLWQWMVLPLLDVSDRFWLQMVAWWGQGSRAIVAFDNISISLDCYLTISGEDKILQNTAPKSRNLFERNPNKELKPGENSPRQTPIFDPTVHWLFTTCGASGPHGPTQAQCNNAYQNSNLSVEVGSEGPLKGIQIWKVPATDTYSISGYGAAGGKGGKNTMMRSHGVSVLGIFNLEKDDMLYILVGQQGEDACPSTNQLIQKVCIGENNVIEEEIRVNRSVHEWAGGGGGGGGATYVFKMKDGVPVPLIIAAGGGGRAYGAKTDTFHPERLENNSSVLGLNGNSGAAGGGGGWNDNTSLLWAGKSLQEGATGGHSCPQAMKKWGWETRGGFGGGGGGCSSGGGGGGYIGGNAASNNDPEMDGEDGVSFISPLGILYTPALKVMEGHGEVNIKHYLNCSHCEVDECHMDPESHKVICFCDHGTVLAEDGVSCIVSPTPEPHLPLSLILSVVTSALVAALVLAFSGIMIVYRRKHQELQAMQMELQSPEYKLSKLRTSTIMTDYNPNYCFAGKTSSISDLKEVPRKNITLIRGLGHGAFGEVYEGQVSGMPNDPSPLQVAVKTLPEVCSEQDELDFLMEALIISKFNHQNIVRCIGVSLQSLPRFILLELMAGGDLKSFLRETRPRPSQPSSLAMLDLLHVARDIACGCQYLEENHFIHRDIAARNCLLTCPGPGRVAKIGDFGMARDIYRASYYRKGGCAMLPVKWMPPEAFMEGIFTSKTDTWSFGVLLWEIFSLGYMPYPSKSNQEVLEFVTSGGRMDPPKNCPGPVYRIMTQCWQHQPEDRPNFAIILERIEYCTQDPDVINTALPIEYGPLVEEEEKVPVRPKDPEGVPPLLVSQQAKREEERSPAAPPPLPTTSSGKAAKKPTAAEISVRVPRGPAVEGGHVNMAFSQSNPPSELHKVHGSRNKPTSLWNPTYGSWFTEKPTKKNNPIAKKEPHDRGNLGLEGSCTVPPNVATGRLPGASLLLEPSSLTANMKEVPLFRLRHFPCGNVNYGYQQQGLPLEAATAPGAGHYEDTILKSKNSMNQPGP
T1 sequence (P08069 31-1367): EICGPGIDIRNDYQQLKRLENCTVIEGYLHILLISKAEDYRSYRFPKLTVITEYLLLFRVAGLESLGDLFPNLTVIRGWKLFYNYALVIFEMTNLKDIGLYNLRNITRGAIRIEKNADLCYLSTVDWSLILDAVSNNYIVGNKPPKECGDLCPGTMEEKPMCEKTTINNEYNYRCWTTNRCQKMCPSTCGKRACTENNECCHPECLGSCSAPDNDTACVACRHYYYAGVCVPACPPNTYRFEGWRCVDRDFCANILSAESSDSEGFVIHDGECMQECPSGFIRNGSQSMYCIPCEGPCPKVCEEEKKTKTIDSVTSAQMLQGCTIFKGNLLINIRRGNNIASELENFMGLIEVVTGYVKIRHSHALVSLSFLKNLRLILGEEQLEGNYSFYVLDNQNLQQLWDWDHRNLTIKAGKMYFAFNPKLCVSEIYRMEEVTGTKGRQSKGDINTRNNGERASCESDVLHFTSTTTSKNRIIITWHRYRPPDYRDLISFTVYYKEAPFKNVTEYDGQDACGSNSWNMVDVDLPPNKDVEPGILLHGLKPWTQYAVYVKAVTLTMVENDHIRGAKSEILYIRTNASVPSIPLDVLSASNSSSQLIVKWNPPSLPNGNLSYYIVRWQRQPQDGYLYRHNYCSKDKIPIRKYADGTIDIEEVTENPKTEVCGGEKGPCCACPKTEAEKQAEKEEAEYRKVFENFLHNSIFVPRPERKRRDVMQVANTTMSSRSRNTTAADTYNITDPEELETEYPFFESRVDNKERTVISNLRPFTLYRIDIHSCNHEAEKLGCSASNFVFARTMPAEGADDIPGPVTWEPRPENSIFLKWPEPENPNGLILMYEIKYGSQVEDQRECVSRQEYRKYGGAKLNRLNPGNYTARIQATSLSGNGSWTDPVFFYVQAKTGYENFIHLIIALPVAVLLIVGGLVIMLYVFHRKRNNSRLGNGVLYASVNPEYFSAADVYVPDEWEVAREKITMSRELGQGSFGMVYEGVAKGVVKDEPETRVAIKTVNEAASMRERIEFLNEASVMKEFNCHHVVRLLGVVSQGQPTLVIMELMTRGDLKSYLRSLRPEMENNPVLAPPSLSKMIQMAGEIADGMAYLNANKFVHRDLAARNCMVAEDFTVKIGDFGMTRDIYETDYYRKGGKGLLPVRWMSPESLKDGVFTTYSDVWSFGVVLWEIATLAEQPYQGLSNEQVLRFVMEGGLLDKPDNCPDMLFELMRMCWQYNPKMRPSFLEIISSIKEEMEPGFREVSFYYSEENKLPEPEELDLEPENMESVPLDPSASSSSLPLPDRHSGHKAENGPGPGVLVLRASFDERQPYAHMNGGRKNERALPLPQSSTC
T2 sequence (P06213 28-1382): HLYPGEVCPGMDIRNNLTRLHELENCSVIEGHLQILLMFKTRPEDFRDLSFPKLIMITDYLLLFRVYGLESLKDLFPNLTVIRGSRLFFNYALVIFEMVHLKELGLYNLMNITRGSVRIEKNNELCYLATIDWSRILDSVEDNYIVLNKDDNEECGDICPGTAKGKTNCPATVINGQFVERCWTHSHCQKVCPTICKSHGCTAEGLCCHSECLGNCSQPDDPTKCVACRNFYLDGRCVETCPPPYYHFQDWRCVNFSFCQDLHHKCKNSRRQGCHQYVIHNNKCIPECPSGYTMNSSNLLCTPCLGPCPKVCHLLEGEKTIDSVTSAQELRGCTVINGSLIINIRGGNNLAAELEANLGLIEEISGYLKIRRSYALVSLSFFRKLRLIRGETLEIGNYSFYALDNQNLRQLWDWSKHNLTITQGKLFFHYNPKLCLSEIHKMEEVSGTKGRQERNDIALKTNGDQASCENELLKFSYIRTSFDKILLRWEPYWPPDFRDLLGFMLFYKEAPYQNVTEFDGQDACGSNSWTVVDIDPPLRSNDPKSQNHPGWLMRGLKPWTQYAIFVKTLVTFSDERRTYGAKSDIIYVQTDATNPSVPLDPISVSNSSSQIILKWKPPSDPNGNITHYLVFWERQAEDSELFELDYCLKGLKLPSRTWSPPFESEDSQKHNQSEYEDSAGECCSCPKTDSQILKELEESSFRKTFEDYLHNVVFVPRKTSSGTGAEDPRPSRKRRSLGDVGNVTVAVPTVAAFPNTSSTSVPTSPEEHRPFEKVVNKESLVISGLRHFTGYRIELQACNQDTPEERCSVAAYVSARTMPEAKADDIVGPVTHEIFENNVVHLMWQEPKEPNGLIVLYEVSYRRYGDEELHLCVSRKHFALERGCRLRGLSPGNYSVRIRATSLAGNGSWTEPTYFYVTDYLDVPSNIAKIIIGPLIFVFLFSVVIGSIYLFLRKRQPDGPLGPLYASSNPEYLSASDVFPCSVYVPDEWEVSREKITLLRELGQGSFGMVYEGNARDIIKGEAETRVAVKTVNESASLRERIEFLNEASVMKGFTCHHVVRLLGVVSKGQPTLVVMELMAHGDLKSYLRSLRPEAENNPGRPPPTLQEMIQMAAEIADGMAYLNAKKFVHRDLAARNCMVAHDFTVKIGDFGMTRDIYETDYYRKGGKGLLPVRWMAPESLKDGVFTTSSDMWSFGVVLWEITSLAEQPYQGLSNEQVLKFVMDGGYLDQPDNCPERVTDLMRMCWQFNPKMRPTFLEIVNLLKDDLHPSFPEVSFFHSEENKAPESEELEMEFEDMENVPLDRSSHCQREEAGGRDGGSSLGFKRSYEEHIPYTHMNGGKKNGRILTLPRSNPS

COc1cc(N2CCC(N3CCN(S(C)(=O)=O)CC3)CC2)ccc1Nc1nc(Nc2cccc(F)c2C(N)=O)c2cc[nH]c2n1 [Example 113, 2-fluoro-6-({2-[(2-(methyloxy)-4-{4-[4-(methylsulfonyl)-1-piperazinyl]-1-piperidinyl}phenyl)amino]-1H-pyrrolo[2,3-d]pyrimidin-4-yl}amino)benzamide]
IC50 [1]: < 0.25 µM | IC50 [2]: < 0.1 µM | IC50 [3]: 0.1 to 0.5 µM | IC50 [4]: 0.000251 to 0.001 µM

COc1cc(N2CCN(C(C)C)CC2)ccc1Nc1nc(Nc2cc(Cl)cc(F)c2C(N)=O)c2cc[nH]c2n1 [Example 93, 4-chloro-2-fluoro-6-[(2-{[4-[4-(1-methylethyl)-1-piperazinyl]-2-(methyloxy)phenyl]amino}-1H-pyrrolo[2,3-d]pyrimidin-4-yl)amino]benzamide]
IC50 [1]: < 0.25 µM | IC50 [2]: 0.1 to 0.5 µM | IC50 [3]: 0.1 to 0.5 µM | IC50 [4]: 0.000251 to 0.001 µM

COc1cc(C2CCN(C(C)C)CC2)ccc1Nc1nc(Nc2cc(F)c(F)cc2C(N)=O)c2cc[nH]c2n1 [Example 97, 4,5-difluoro-2-[(2-{[4-[1-(1-methylethyl)-4-piperidinyl]-2-(methyloxy)phenyl]amino}-1H-pyrrolo[2,3-d]pyrimidin-4-yl)amino]benzamide]
IC50 [1]: < 0.25 µM | IC50 [2]: < 0.1 µM | IC50 [3]: < 0.1 µM | IC50 [4]: 0.000251 to 0.001 µM

CNC(=O)c1c(Nc2nc(Nc3cc4c(cc3OC)CCCN4C(=O)CN(C)C)nc3[nH]ccc23)ccc(F)c1F [Example 163, 6-[(2-{[1-(N,N-dimethylglycyl)-6-(methyloxy)-1,2,3,4-tetrahydro-7-quinolinyl]amino}-1H-pyrrolo[2,3-d]pyrimidin-4-yl)amino]-2,3-difluoro-N-methylbenzamide]
IC50 [1]: < 0.25 µM | IC50 [2]: < 0.1 µM | IC50 [3]: < 0.1 µM | IC50 [4]: 0.00126 to 0.00398 µM

COc1cc(N2CCC(N3CCN(CCF)CC3)CC2)ccc1Nc1nc(Nc2cccc(F)c2C(N)=O)c2cc[nH]c2n1 [Example 114, 2-fluoro-6-[(2-{[4-{4-[4-(2-fluoroethyl)-1-piperazinyl]-1-piperidinyl}-2-(methyloxy)phenyl]amino}-1H-pyrrolo[2,3-d]pyrimidin-4-yl)amino]benzamide]
IC50 [1]: < 0.25 µM | IC50 [2]: < 0.1 µM | IC50 [3]: < 0.1 µM | IC50 [4]: 0.00126 to 0.00398 µM

CCNC(=O)c1c(F)cccc1Nc1nc(Nc2cc3c(cc2OC)CCN3C(=O)CN(C)C)nc2[nH]ccc12 [Example 126, 2-[(2-{[1-(N,N-dimethylglycyl)-5-(methyloxy)-2,3-dihydro-1H-indol-6-yl]amino}-1H-pyrrolo[2,3-d]pyrimidin-4-yl)amino]-N-ethyl-6-fluorobenzamide]
IC50 [1]: < 0.25 µM | IC50 [2]: 0.1 to 0.5 µM | IC50 [3]: 0.1 to 0.5 µM | IC50 [4]: 0.000251 to 0.001 µM
